Test results from ChEMBL document CHEMBL2401646 (Bioorg Med Chem Lett, 2013).
Values after ≈ are worked out from the molar mass of the structure shown.

Assays:
[1] = Antitumor activity against human U87MG cells xenografted in nu/nu CD1 mouse model assessed as maximum tumor regression at 50 mg/kg, po qd for 14 days; assay type: functional, U-87MG ATCC
[2] = Antitumor activity against human U87MG cells xenografted in nu/nu CD1 mouse model assessed as tumor growth inhibition at 200 mg/kg, po qd for 14 days; assay type: functional, U-87MG ATCC; conditions: U-87 MG, 336 h, read-out: TGI
[3] = Antitumor activity against human U87MG cells xenografted in nu/nu CD1 mouse model assessed as tumor growth inhibition at 100 mg/kg, po qd for 14 days; assay type: functional, U-87MG ATCC; conditions: U-87 MG, 336 h, read-out: TGI
[4] = Antitumor activity against human U87MG cells xenografted in nu/nu CD1 mouse model assessed as tumor growth inhibition at 50 mg/kg, po qd for 14 days; assay type: functional, U-87MG ATCC; conditions: U-87 MG, 336 h, read-out: TGI
Mus musculus [5] = test: Inhibition of cMET autophosphorylation at Y1234/1235 in human MKN45 cells xenografted in nu/nu CD1 mouse at 100 mg/kg, po qd for 14 days measured after 24 hrs of last dose; assay type: functional; conditions: MKN-45
[6] = Protein binding in mouse plasma by equilibrium dialysis; assay type: ADME, cell-free; conditions: read-out: PPB (converted)
Salmonella typhimurium [7] = test: Mutagenic activity in Salmonella typhimurium TA100 by Ames test in presence of liver S9 fraction; assay type: toxicity, organism-based; conditions: salmonella enterica subsp. enterica serovar typhimurium
Salmonella typhimurium [8] = test: Mutagenic activity in Salmonella typhimurium TA98 by Ames test in presence of liver S9 fraction; assay type: toxicity, organism-based; conditions: salmonella enterica subsp. enterica serovar typhimurium
Salmonella typhimurium [9] = test: Mutagenic activity in Salmonella typhimurium TA100 by Ames test in absence of liver S9 fraction; assay type: toxicity, organism-based; conditions: salmonella enterica subsp. enterica serovar typhimurium
Salmonella typhimurium [10] = test: Mutagenic activity in Salmonella typhimurium TA98 by Ames test in absence of liver S9 fraction; assay type: toxicity, organism-based; conditions: salmonella enterica subsp. enterica serovar typhimurium
Mus musculus [11] = test: Toxicity in human U87MG cells xenografted nu/nu CD1 mouse model assessed as body weigh loss at 50 mg/kg, po bid for 14 days; assay type: organism-based, U-87MG ATCC; parameters: dose 50 mg/kg, route oral; conditions: in vivo, 336 h
Mus musculus [12] = test: Toxicity in human U87MG cells xenografted nu/nu CD1 mouse model assessed as body weigh loss at 200 mg/kg, po qd for 14 days; assay type: organism-based, U-87MG ATCC; parameters: dose 200 mg/kg, route oral; conditions: in vivo, 336 h
[13] = Antitumor activity against human U87MG cells xenografted in nu/nu CD1 mouse model assessed as maximum tumor regression at 100 mg/kg, po bid for 14 days; assay type: functional, U-87MG ATCC
[14] = Antitumor activity against human U87MG cells xenografted in nu/nu CD1 mouse model assessed as maximum tumor regression at 50 mg/kg, po bid for 14 days; assay type: functional, U-87MG ATCC
[15] = Antitumor activity against human U87MG cells xenografted in nu/nu CD1 mouse model assessed as tumor growth inhibition at 100 mg/kg, po bid for 14 days; assay type: functional, U-87MG ATCC; conditions: U-87 MG, 336 h, read-out: TGI
[16] = Antitumor activity against human U87MG cells xenografted in nu/nu CD1 mouse model assessed as tumor growth inhibition at 50 mg/kg, po bid for 14 days; assay type: functional, U-87MG ATCC; conditions: U-87 MG, 336 h, read-out: TGI
[17] = Antitumor activity against human U87MG cells xenografted in nu/nu CD1 mouse model assessed as maximum tumor regression at 200 mg/kg, po qd for 14 days; assay type: functional, U-87MG ATCC
Mus musculus [18] = test: Inhibition of MET autophosphorylation at Y1234/1235 in human MKN45 cells xenografted in mouse at 100 mg/kg, po after 24 hrs; assay type: functional; conditions: MKN-45, 24 h
[19] = Plasma concentration in human MKN45 cells xenografted in mouse at 100 mg/kg, po after 16 hrs; assay type: ADME, organism-based, MKN-45; parameters: dose 100 mg/kg, route oral
[20] = Plasma concentration in human MKN45 cells xenografted in mouse at 100 mg/kg, po up to 8 hrs; assay type: ADME, organism-based, MKN-45; parameters: dose 100 mg/kg, route oral
Aurora kinase B [21] = molecular target: T1, Aurora kinase B (Homo sapiens, UniProt Q96GD4); test: Inhibition of aurora-B in human HT-29 cells assessed as phosphorylation of histone H3 at Ser10 in presence of mouse plasma; assay type: cell-based
Aurora kinase B [22] = molecular target: T1, Aurora kinase B; test: Inhibition of aurora-B in human HT-29 cells assessed as phosphorylation of histone H3 at Ser10; assay type: cell-based
[23] = molecular target: Vascular endothelial growth factor receptor 2 (Homo sapiens, UniProt P35968); test: Inhibition of KDR (unknown origin) autophosphorylation
[24] = molecular target: Macrophage-stimulating protein receptor (Homo sapiens, UniProt Q04912); test: Inhibition of RON (unknown origin) autophosphorylation
[25] = molecular target: ALK tyrosine kinase receptor (Homo sapiens, UniProt Q9UM73); test: Inhibition of ALK (unknown origin) autophosphorylation
[26] = molecular target: T2, Hepatocyte growth factor receptor (Homo sapiens, UniProt P08581); test: Inhibition of cMET in human MKN45 cells assessed as phosphorylated MET levels after 4 hrs in presence of mouse plasma; assay type: cell-based, MKN-45
[27] = molecular target: Hepatocyte growth factor receptor (Homo sapiens, UniProt P08581, Y1230H); test: Inhibition of cMET Y1230H mutant (unknown origin) autophosphorylation
[28] = Solubility of the compound at pH 4.5; assay type: physicochemical; conditions: buffer
[29] = Solubility of the compound at pH 3; assay type: physicochemical; conditions: buffer
[30] = AUC (0 to last) in Sprague-Dawley rat at 20 mg/kg, po; assay type: ADME, organism-based; parameters: time 0 - last, dose 20 mg/kg, route oral; conditions: plasma
[31] = Half life in Sprague-Dawley rat at 2 mg/kg, iv; assay type: ADME, organism-based; parameters: dose 2 mg/kg, route intravenous; conditions: in vivo
[32] = Cmax in Sprague-Dawley rat at 20 mg/kg, po; assay type: ADME, organism-based; parameters: dose 20 mg/kg, route oral; conditions: in vivo
[33] = Half life in CD1 mouse at 2 mg/kg, iv; assay type: ADME, organism-based; parameters: dose 2 mg/kg, route intravenous; conditions: in vivo
[34] = Volume of distribution at steady state in CD1 mouse at 2 mg/kg, iv; assay type: ADME, organism-based; parameters: dose 2 mg/kg, route intravenous; conditions: in vivo, read-out: Vdss
[35] = Clearance in CD1 mouse at 2 mg/kg, iv; assay type: ADME, organism-based; parameters: dose 2 mg/kg, route intravenous; conditions: in vivo
[36] = Metabolic stability in mouse liver microsomes assessed as extraction ratio up to 40 mins by LC-MS/MS analysis; assay type: ADME, Microsome; conditions: read-out: ERH
[37] = Metabolic stability in human liver microsomes assessed as extraction ratio up to 40 mins by LC-MS/MS analysis; assay type: ADME, Microsome; conditions: read-out: ERH
[38] = molecular target: T2, Hepatocyte growth factor receptor; test: Inhibition of cMET in human MKN45 cells assessed as phosphorylated MET levels after 4 hrs; assay type: cell-based, MKN-45
[39] = molecular target: T2, Hepatocyte growth factor receptor; test: Inhibition of cMET (unknown origin) using biotinylated poly(Glu,Tyr) as substrate after 60 mins
Mus musculus [40] = test: Toxicity in human SNU5 cells xenografted nu/nu CD1 mouse model assessed as body weigh loss at 200 mg/kg, po qd for 20 days; conditions: in vivo, 480 h
SNU-5 [41] = test: Antitumor activity against human SNU5 cells xenografted in nu/nu CD1 mouse model assessed as tumor growth inhibition at 50 mg/kg, po qd for 20 days; conditions: SNU-5, po, 480 h, read-out: TGI
SNU-5 [42] = test: Antitumor activity against human SNU5 cells xenografted in nu/nu CD1 mouse model assessed as maximum tumor regression at 50 mg/kg, po qd for 20 days
SNU-5 [43] = test: Antitumor activity against human SNU5 cells xenografted in nu/nu CD1 mouse model assessed as tumor growth inhibition at 200 mg/kg, po qd for 20 days; conditions: SNU-5, po, 480 h, read-out: TGI

C[C@@H](Oc1c(N)ncc2c(C3=CCN(C(N)=O)CC3)coc12)c1c(Cl)ccc(F)c1Cl
Activity [1]: 0% | inhibition in vivo at 200 mg/kg [2]: 94% | inhibition in vivo at 100 mg/kg [3]: 79% | inhibition in vivo at 50 mg/kg [4]: 58% | inhibition in vivo at 100 mg/kg (Mus musculus [5]): > 90% | fraction unbound [6]: 0.018 | Activity (Salmonella typhimurium [7]): Non-toxic | Activity (Salmonella typhimurium [8]): Non-toxic | Activity (Salmonella typhimurium [9]): Non-toxic | Activity (Salmonella typhimurium [10]): Non-toxic | Activity (Mus musculus [11]): 5% | Activity (Mus musculus [12]): 0% | Activity [13]: 22% | Activity [14]: 0% | inhibition in vivo at 100 mg/kg [15]: 97% | inhibition in vivo at 50 mg/kg [16]: 79% | Activity [17]: 8% | inhibition in vivo at 100 mg/kg (Mus musculus [18]): 45% | concentration at 16 h [19]: 520 nM | concentration at 8 h [20]: > 3000 nM | IC50 (Aurora kinase B [21]): > 10 µM | IC50 (Aurora kinase B [22]): 1000 nM | IC50 [23]: 1300 nM | IC50 [24]: 25 nM | IC50 [25]: 40 nM | IC50 [26]: 600 nM | IC50 [27]: 110 nM | solubility [28]: 11 µM (≈ 5.12 µg/mL) | solubility [29]: > 100 µM | AUC(0-t) [30]: 6200 ng·h/mL | half-life [31]: 120 min | Cmax [32]: 2500 nM | half-life [33]: 174 min | Vd [34]: 3.8 L/kg | clearance [35]: 51 mL/min/kg | hepatic extraction ratio at 40 min [36]: 0.7 | hepatic extraction ratio at 40 min [37]: 0.7 | IC50 [38]: 42 nM | IC50 [39]: 26 nM | Activity (Mus musculus [40]): 4% | inhibition in vivo at 50 mg/kg (SNU-5 [41]): 100% | Activity (SNU-5 [42]): 31% | inhibition in vivo at 200 mg/kg (SNU-5 [43]): 100%
